The record followed here is patent EP0277849A1, “Incorporation of one or more lipophilic, active principles into lipoproteins, lipoproteins obtained and pharmaceutical compositions containing them” (IRE-CELLTARG S.A., priority 1987, dated 1988).

Common to all, as to format: cell-based
One assay deals with L. mexicana amazonentis. Briefly: In vitro antileishmanial model: intracellular amastigotes in peritoneal macrophages. The following applies: for Nombre d'amastigotes (b) (% des contrôles): 35°, mean (SD) of 4. Here is the method: Le modèle in vitro utilisé, consiste à développer les formes intracellulaires (amastigotes) de Leishmania mexicana anazonentis dans des macrophages péritonéaux de souris Balb/c injectés initialement par les formes promastigotes.
La culture de macrophages est obtenue à partir des cellules de la cavité péritonéale.
Brièvement, la cavité péritonéale est lavée plusieurs fois avec du milieu RPMI 1640 contenant de la pénicilline (100 U/ml) et de la streptomycine (100 µg/ml) additionné de glutamine (2 mM) et de 20 % de sérum de veau foetal décomplémenté à la chaleur. Ce milieu constitue le milieu de culture complet. Après centrifugation de la suspension cellulaire ainsi obtenue, les cellules sont resuspendues dans le même milieu, puis incubées 1 heure à 37° C en présence de 5 % C02 dans des boîtes de Pétri. Les macrophages adhérents sont ensuite lavés plusieurs fois, détachés de leur support puis comptés. Un volume cellulaire contenant 2,5 x 10^5 macrophages est ajouté dans chaque puits (16 mm de diamètre) des boîtes de culture contenant chacun une lamelle en verre. Les cellules sont ainsi cultivées 3 jours à 37°C. Avant d'être utilisées, les cultures sont lavées 2 fois pour retirer les cellules non adhérentes. Dans ces conditions, les cultures contiennent 1,5 à 2,0 x 10^5 macrophages.
La souche de L. mexicana amazonentis est maintenue sous forme promastigote à 27° C par passage successif dans du milieu Schneider Drosophila contenant 100 µg/ml de gentamycine, 2 mM de glutamine, 5 gg/ml d'hémine et additionné de 20 % de sérum de veau foetal décomplémenté.
Une suspension de promastigotes en phase stationnaire est ajoutée à chaque culture de macrophages à raison de 4 parasites par cellule. Les cultures sont incubées à 34,5°-35°C (5 % C02-95 % air) pendant 7 heures. Les cultures infectées sont lavées avec du milieu sans sérum jusqu'à ce qu'il y ait moins de un parasite par 20 macrophages. Une culture (1 boîte à 4 puits) est fixée et colorée au May-Grûnwald Giemsa pour contrôler l'infection (jour 0). S'il y a moins de 50 organismes intracellulaires par 100 macrophages, l'infection est considérée trop faible pour une interprétation correcte des résultats. 24 heures après l'infection, le milieu de culture est remplacé par du milieu frais contenant ou non un agent thérapeutique. Nous avons choisi d'utiliser le dérivé oléoyl-kétoconazole seul ou incorporé à des LSL natives ou acétylées. Le milieu (± l'agent thérapeutique) est renouvelé au jour 3. Au jour 6, des cultures de macrophages Infectés sont fixées, colorées, séchées, la lamelle de verre est ensuite montée sur une lame pour l'observation microscopique.
Le nombre d'amastigotes contenu dans 100 à 200 macrophages est déterminé pour chaque culture. Le nombre moyen d'organismes par 100 macrophages au jour 6 dans les cultures traitées est exprimé en pourcentage du nombre moyen d'organismes par 100 macrophages dans les cultures contrôles au jour 6 (% de survie). Les cultures contrôles contiennent en moyenne 300 à 400 parasites par 100 macrophages; 60 % en moyenne des macrophages sont infectés et contiennent de 5 à 7 amastigotes.

For a further assay, the system named is C. tropicalis. Briefly: Extracellular infection in the infected-macrophage model. The note with it: Candida tropicalis, read-out: CIext50^(a). On the procedure:
(§1) La lignée continue de macrophages J77468 d'origine murine provient d'un clonage de la souche J774 ATCC, et est cultivée en milieu RPMI 1640 additionné de glutamine 2 mM, 10% de sérum de veau foetal (décomplémenté 60 min. à 56°) et de 10 mM Hepes (pH 7.2). Une suspension de 5 10^6 cellules/ml sont infectées avec une culture de Candida tropicalis (5 10^5 levures/ml) provenant d'une culture de nuit dans de la casitone. Le milieu d'infection utilisé est du RPMI contenant 2 % de sérum de veau nouveau-né et 10 mM Hepes (pH 7.2).
(§2) Après 3 h d'incubation à 37° dans un mélange d'air 10 % C02, la phagocytose des levures est complète. La suspension cellulaire macrophages-Candida est centrifugée, lavée abondamment et répartie à raison de 10^5 macrophages infectés/alvéole dans des boîtes à 24 alvéoles contenant une lamelle de verre (diamètre 14 mm). Après 3 h de phagocytose (To), sur 100 macrophages, 32 contiennent de 1 à 6 Candida/macrophage, l'infection moyenne étant de 2 Candida/macrophage.
(§3) Toutes les levures ont été phagocytées sauf rares exceptions (estimation au microscope optique après coloration au May-Grünwald Giemsa). Douze concentrations différentes des drogues de référence et des drogues encapsulées dans les LDL sont distribuées dans les boîtes contenant les macrophages infectés.
(§4) L'évaluation de l'efficacité d'une drogue se fait à chaque concentration. Testées après 18 h d'incubation (37°, dans un mélange air-10 % C02), les levures se multiplient d'abord au sein des cellules hôtes, puis dans le milieu extracellulaire. Le taux de macrophages infectés est alors de 75 % chez les témoins. Une cellule peut contenir de 1 à plus de 20 Candida/cellule, la majorité contient de 2 à 6 levures/cellule. Le milieu de culture contient 10^8 Candida extracellulaires/ml (comptage dans une cellule de Burker).
L'action des AF encapsulés sur une infection extracellulaire peut être évaluée de deux manières : d'une part en déterminant le nombre de Candida extracellulaires dans un modèle d'infection intracellulaire (voir VIII § 1.1.), d'autre part en mesurant la concentration minimale inhibitrice (CMI) de ces composés par la méthode de dilutions successives dans des boîtes à multipuits (milieu RPMI).

The subject of a further assay is Candida tropicalis. Briefly: Intracellular infection model: J77468 macrophages infected with Candida tropicalis. The note with it: 2 % de sérum de veau foetal. Here is the method:
as §1, §2, §3, §4
L'activité d'une drogue encapsulée ou non dans les LDL ou Ac-LDL par rapport à un antifongique de référence, le kétoconazole (K), est déterminé par la concentration micromolaire en drogue réduisant de 50 % le nombre de macrophages infectés par les Candida (=C150). Signalons que parallèlement à la réduction au cours du traitement, du taux de cellules infectées, le nombre de Candida par macrophage infecté diminue fortement (de 1 à 3 levures/cellule).
Le milieu de culture est RPMI + glutamine 2 mM + Hepes 10 mM + 2 % de sérum de veau foetal.

The mark [1] stands for this setting: Leishmania mexicana, Peritoneal macrophage, read-out: Activité (c) (% inhibition).

Like-named read-outs stand apart in the source and are kept apart here.

For `CCCCCCCC/C=C\CCCCCCCC(=O)N1CCN(c2ccc(OC[C@H]3CO[C@](Cn4ccnc4)(c4ccc(Cl)cc4Cl)O3)cc2)CC1` [KO1], the inhibition at 0.5 µg/mL in the assay with L. mexicana amazonentis (setting [1]) is 28%. For the same molecule, the inhibition at 1 µg/mL in the assay with L. mexicana amazonentis (setting [1]) was 43%. Moreover, the inhibition at 1.4 µg/mL in the assay with L. mexicana amazonentis (setting [1]) was 50%. For the same molecule, the inhibition at 2 µg/mL in the assay on L. mexicana amazonentis (setting [1]) was found to be 56%. The inhibition at 2.5 µg/mL in the assay with L. mexicana amazonentis (setting [1]) was determined as 64%. Also, the inhibition at 11 µg/mL with L. mexicana amazonentis (setting [1]) was determined as 90%. Further, the “index thérapeutique (rapport de ED50 kéto sur ED50 K01)” value with L. mexicana amazonentis (compared with kétoconazole) worked out at 9. Besides, the “Nombre d'amastigotes (b) (% des contrôles)” value in the assay with L. mexicana amazonentis (dose 0,5 µg/ml, 6 jours) is 72 (6) %; in the assay on L. mexicana amazonentis (dose 1,0 µg/ml, 6 jours) it was 57 (3) %; in the assay on L. mexicana amazonentis (dose 1,4 µg/ml, 6 jours) it was 50 (4) %; in the assay with L. mexicana amazonentis (dose 2,0 µg/ml, 6 jours), 44 (2) %; in the assay on L. mexicana amazonentis (dose 2,5 µg/ml, 6 jours) it was 36 (6) %; with L. mexicana amazonentis (dose 11,0 µg/ml, 6 jours) it was 10 (4) %. Besides, the “ED50 (50 % d'inhibition)” value in the assay on L. mexicana amazonentis (intracellular amastigotes, 6 jours) is on record as 1,4 µg KO1.ml. Besides, the IC50 in the assay on C. tropicalis (addition de 2 % Pl.H. (plasma humain)) turned out to be 50.1 µM; with C. tropicalis (addition de 2 % SVF (sérum de veau foetal)) it was 8.31 µM; in the assay with Candida tropicalis (Candida tropicalis, Macrophage, micromolar concentration reducing infected macrophages by 50 %, 18 h, read-out: CI50 (the source's name)), 85.3 µM. Further, the “CI50 K/AF” value with Candida tropicalis is reported as 0,6.

The term inhibition denotes how much of the control response was suppressed.
